Experiments:
[1] = target: FGFR3-BAIAP2L1 Ba/F3 cells (Homo sapiens, UniProt P22607); test: Ba/F3 cell viability assay (CellTiter-Glo 2.0), FGFR3-BAIAP2L1 Ba/F3; type: cell-based; details: for Ba/F3 FGFR1/FGFR3 Selectivity: FGFR3 > FGFR1 selectivity ratio in Ba/F3 FGFR fusion cell based assays; for IC50: read-out: Ba/F3 Cells FGFR3 (IC50 nM), FGFR3-BAIAP2L1 Ba/F3 cells, 48 hours, Cell Titer Glo 2.0
Method in brief: (§1)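 Viability read as ATP luminescence (CellTiter-Glo 2.0) after 48 h compound exposure, normalized to DMSO-treated cells and fitted with a 4-parameter curve for IC50. Cells: Ba/F3 dependent on FGFR1-BCR or FGFR3-BAIAP2L1 fusion kinase; top dose 30 μM, 10-fold steps, 9 doses in triplicate.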

FGFR1-BCR Ba/F3 cells = FGFR1-BCR Ba/F3 cells (Homo sapiens, UniProt P11362); test: Ba/F3 cell viability assay (CellTiter-Glo 2.0), FGFR1-BCR Ba/F3; type: cell-based; details: read-out: Ba/F3 Cells FGFR1 (IC50 nM), 48 hours, Cell Titer Glo 2.0
Method in brief: as §1

[2] = tested on: RT112/84 cells (FGFR3-fusion); test: RT112/84 cancer cell line cell viability assay (CellTiter-Glo 2.0); type: cell-based; details: Homo sapiens, 72 hours, Cell Titer Glo 2.0
Method in brief: (§2)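 Viability was measured as cellular ATP by CellTiter-Glo 2.0 luminescence after 72 h compound exposure, using nine 10-fold doses from 30 μM, in triplicate. Cells were plated at 10,000/well in RPMI1640 with 10% FBS the day before dosing. Signal was expressed as % of DMSO-treated control, and IC50 came from a 4-parameter fit.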

[3] = tested on: UM-UC-14 cells (FGFR3(S249C)); test: UM-UC-14 cancer cell line cell viability assay (CellTiter-Glo 2.0); type: cell-based; details: UMUC14, 72 hours, Cell Titer Glo 2.0
Method in brief: as §2

[4] = tested on: KG-1 cells (FGFR1-fusion); test: KG-1 cancer cell line cell viability assay (CellTiter-Glo 2.0); type: cell-based; details: Homo sapiens, 72 hours, Cell Titer Glo 2.0
Method in brief: as §2

FGFR1 = FGFR1 (Homo sapiens (Human), UniProt P11362); test: Kinase assay, binding constants (Kd), kinase-tagged T7 phage, qPCR
Method in brief: (§3)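 Using T7 phage lysates from BL21-derived E. coli, compounds at 0.9% final DMSO competed for kinase binding to ligand-bearing magnetic beads. After elution, qPCR measured remaining kinase, and Kds were fitted by non-linear least squares with the Hill slope fixed at −1.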

FGFR2 = FGFR2 (Homo sapiens (Human), UniProt P21802); test: as above
Method in brief: as §3

FGFR3 = FGFR3 (Homo sapiens (Human), UniProt P22607); test: as above
Method in brief: as §3

FGFR3 (V555M) = FGFR3 (V555M) (Homo sapiens (Human), UniProt P22607, V555M); test: as above; details: V555M mutant
Method in brief: as §3

FGFR4 = FGFR4 (Homo sapiens (Human), UniProt P22455); test: as above
Method in brief: as §3

Sequence of FGFR2 (P21802 22-821): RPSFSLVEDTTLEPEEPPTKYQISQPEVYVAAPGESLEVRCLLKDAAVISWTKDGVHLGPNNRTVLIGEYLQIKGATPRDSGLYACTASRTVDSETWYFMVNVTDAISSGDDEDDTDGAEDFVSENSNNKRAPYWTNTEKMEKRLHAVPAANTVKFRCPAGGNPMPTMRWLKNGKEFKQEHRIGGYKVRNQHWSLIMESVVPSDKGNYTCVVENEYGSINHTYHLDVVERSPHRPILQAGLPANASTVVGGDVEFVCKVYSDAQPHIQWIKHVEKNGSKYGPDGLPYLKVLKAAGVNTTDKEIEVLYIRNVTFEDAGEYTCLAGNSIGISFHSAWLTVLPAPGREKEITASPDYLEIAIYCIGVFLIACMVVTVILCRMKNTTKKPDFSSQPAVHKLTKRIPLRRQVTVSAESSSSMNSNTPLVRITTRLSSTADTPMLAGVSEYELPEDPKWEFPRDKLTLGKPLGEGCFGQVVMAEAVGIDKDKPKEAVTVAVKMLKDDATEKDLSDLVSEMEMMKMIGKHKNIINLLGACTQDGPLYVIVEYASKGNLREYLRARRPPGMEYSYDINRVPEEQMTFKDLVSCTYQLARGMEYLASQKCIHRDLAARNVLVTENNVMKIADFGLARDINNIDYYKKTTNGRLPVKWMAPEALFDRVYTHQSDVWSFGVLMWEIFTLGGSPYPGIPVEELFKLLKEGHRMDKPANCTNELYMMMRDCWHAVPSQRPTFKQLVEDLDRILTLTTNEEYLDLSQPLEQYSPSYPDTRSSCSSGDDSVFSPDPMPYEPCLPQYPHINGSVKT
Sequence of FGFR4 (P22455 22-802): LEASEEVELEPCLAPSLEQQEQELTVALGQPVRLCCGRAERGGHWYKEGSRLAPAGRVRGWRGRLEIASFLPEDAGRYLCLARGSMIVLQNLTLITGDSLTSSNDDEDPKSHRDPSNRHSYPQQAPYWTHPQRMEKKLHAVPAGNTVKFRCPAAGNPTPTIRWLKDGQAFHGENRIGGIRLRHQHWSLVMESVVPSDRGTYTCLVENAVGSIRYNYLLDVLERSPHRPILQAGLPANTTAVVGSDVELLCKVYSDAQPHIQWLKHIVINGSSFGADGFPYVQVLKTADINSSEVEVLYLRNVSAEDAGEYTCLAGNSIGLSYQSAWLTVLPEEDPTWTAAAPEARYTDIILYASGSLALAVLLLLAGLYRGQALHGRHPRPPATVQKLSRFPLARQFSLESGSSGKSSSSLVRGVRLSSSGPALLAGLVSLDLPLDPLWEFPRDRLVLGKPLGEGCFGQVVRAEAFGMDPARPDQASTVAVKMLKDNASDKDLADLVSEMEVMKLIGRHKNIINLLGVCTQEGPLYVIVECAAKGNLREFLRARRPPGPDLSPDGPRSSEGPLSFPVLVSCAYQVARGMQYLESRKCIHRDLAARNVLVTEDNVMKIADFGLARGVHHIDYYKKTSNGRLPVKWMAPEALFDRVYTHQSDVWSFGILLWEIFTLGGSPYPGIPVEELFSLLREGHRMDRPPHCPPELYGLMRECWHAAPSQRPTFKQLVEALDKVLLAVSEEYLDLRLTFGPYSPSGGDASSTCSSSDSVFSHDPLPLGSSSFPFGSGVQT
Sequence of FGFR3 (P22607 23-806): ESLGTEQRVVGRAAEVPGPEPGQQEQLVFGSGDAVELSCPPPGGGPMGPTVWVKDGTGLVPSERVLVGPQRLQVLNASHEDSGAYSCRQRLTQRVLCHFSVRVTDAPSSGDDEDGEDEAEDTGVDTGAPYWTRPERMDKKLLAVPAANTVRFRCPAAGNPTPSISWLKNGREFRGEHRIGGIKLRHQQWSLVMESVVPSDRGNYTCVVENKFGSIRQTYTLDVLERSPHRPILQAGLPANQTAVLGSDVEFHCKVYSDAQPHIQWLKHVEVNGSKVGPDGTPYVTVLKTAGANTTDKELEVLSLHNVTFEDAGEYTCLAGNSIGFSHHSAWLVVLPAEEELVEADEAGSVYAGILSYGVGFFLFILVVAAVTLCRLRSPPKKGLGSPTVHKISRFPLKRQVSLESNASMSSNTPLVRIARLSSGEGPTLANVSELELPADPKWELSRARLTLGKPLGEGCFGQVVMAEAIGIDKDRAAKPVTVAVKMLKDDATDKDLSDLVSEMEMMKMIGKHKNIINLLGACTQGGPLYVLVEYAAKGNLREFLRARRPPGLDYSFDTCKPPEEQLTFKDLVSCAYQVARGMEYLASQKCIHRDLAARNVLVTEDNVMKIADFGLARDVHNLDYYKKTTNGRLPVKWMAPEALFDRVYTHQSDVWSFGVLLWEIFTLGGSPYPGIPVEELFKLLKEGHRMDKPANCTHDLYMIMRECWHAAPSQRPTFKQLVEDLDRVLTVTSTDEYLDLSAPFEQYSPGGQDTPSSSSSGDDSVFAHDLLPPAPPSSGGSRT
Sequence of FGFR3-BAIAP2L1 Ba/F3 cells (P22607 23-806 limits assumed, change not shown): as the sequence (P22607 23-806) above
Sequence of FGFR1-BCR Ba/F3 cells (P11362 22-822 limits assumed, change not shown): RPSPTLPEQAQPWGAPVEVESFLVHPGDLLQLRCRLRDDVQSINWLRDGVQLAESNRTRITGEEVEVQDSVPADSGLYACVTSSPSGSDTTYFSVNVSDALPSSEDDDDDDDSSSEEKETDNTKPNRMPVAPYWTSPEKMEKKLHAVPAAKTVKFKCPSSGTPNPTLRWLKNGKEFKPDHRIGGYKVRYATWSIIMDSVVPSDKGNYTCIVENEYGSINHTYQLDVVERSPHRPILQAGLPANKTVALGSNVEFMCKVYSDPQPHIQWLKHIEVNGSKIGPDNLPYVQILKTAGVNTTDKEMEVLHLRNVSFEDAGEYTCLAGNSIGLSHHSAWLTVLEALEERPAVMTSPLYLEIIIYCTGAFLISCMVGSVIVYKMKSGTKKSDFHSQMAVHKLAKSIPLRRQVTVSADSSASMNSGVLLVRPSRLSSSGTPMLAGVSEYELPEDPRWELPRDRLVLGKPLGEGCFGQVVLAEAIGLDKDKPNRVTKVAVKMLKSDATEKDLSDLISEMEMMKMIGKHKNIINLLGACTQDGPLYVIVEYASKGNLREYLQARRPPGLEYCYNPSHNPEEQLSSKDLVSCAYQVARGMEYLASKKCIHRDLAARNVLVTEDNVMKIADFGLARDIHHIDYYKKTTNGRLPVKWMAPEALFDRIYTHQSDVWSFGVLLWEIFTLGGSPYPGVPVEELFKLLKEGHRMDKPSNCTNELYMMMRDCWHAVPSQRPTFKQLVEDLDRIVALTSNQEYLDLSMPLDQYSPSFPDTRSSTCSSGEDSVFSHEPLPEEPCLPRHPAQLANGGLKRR
Sequence of FGFR1 (P11362 22-822): as the sequence (P11362 22-822 limits assumed, change not shown) above
Sequence of FGFR3 (V555M) (P22607 23-806 V555M): as the sequence (P22607 23-806) above, with V533M counted along it

C[C@@H](Oc1ccc2[nH]nc(-c3cnc(N4CCC5(CCN(C)C5=O)CC4)nc3)c2c1)c1c(Cl)cncc1Cl [Example 51, 8-[5-[5-[(1R)-1-(3,5-dichloro-4-pyridyl)ethoxy]-1H-indazol-3-yl]pyrimidin-2-yl]-2-methyl-2,8-diazaspiro[4.5]decan-1-one]
Ba/F3 FGFR1/FGFR3 Selectivity [1]: 7
IC50 [1]: 20 to 100 nM
IC50 (FGFR1-BCR Ba/F3 cells): 100 to 300 nM
IC50 [2]: 20 to 100 nM
IC50 [3]: 20 to 100 nM
IC50 [4]: 100 to 300 nM
Kd (FGFR1): 20 to 100 nM
Kd (FGFR2): 20 to 100 nM
Kd (FGFR3): 1 to 20 nM
Kd (FGFR3 (V555M)): 1 to 20 nM
Kd (FGFR4): 1 to 20 nM

C[C@@H](Oc1ccc2[nH]nc(-c3cnc(N4CCC5(CCCN5C)CC4)nc3)c2c1)c1c(Cl)cncc1Cl [Example 52, 8-[5-[5-[(1R)-1-(3,5-dichloro-4-pyridyl)ethoxy]-1H-indazol-3-yl]pyrimidin-2-yl]-1-methyl-1,8-diazaspiro[4.5]decane]
Ba/F3 FGFR1/FGFR3 Selectivity [1]: 7
IC50 [1]: 20 to 100 nM
IC50 (FGFR1-BCR Ba/F3 cells): 100 to 300 nM
IC50 [2]: 20 to 100 nM
IC50 [3]: 20 to 100 nM
IC50 [4]: 20 to 100 nM
Kd (FGFR1): 1 to 20 nM
Kd (FGFR2): 20 to 100 nM
Kd (FGFR3): 1 to 20 nM
Kd (FGFR3 (V555M)): 1 to 20 nM
Kd (FGFR4): 1 to 20 nM

C[C@@H](Oc1ccc2[nH]nc(-c3cnc(N4CCC5(CCC(=O)N5C)CC4)nc3)c2c1)c1c(Cl)cncc1Cl [Example 54, 8-[5-[5-[(1R)-1-(3,5-dichloro-4-pyridyl)ethoxy]-1H-indazol-3-yl]pyrimidin-2-yl]-1-methyl-1,8-diazaspiro[4.5]decan-2-one]
Ba/F3 FGFR1/FGFR3 Selectivity [1]: 13
IC50 [1]: 1 to 20 nM
IC50 (FGFR1-BCR Ba/F3 cells): 100 to 300 nM
IC50 [2]: 1 to 20 nM
IC50 [3]: 1 to 20 nM
IC50 [4]: 100 to 300 nM
Kd (FGFR1): 1 to 20 nM
Kd (FGFR2): 1 to 20 nM
Kd (FGFR3): 1 to 20 nM
Kd (FGFR3 (V555M)): 1 to 20 nM
Kd (FGFR4): 1 to 20 nM

C[C@@H](Oc1ccc2[nH]nc(-c3cnc(N4CCCN(C5COC5)CC4)nc3)c2c1)c1c(Cl)cncc1Cl [Example 60, 5-[(1R)-1-(3,5-Dichloro-4-pyridyl)ethoxy]-3-[2-[4-(oxetan-3-yl)-1,4-diazepan-1-yl]pyrimidin-5-yl]-1H-indazole]
Ba/F3 FGFR1/FGFR3 Selectivity [1]: 13
IC50 [1]: 1 to 20 nM
IC50 (FGFR1-BCR Ba/F3 cells): 100 to 300 nM
IC50 [2]: 20 to 100 nM
IC50 [3]: 20 to 100 nM
IC50 [4]: 100 to 300 nM
Kd (FGFR1): 1 to 20 nM
Kd (FGFR2): 1 to 20 nM
Kd (FGFR3): 1 to 20 nM
Kd (FGFR3 (V555M)): 1 to 20 nM
Kd (FGFR4): 1 to 20 nM

Cc1cncc(C)c1[C@@H](C)Oc1ccc2[nH]nc(-c3ccc(N4CC5(C4)CN(S(C)(=O)=O)C5)nc3)c2c1 [Example 139, 5-[(1R)-1-(3,5-dimethyl-4-pyridyl)ethoxy]-3-[6-(2-methylsulfonyl-2,6-diazaspiro[3.3]heptan-6-yl)-3-pyridyl]-1H-indazole]
Ba/F3 FGFR1/FGFR3 Selectivity [1]: 14
IC50 [1]: 20 to 100 nM
IC50 (FGFR1-BCR Ba/F3 cells): 100 to 300 nM
IC50 [2]: 1 to 20 nM
IC50 [3]: 1 to 20 nM
IC50 [4]: 100 to 300 nM
Kd (FGFR1): 20 to 100 nM
Kd (FGFR2): 1 to 20 nM
Kd (FGFR3): 1 to 20 nM
Kd (FGFR3 (V555M)): 1 to 20 nM
Kd (FGFR4): 1 to 20 nM

CCOC(=O)N1CC2(C1)CN(c1ccc(-c3n[nH]c4ccc(O[C@H](C)c5c(C)cnnc5C)cc34)cn1)C2 [Example 142, ethyl 6-[5-[5-[(1R)-1-(3,5-dimethylpyridazin-4-yl)ethoxy]-1H-indazol-3-yl]-2-pyridyl]-2,6-diazaspiro[3.3]heptane-2-carboxylate]
Ba/F3 FGFR1/FGFR3 Selectivity [1]: 25
IC50 [1]: 1 to 20 nM
IC50 (FGFR1-BCR Ba/F3 cells): 100 to 300 nM
IC50 [2]: 20 to 100 nM
IC50 [3]: 1 to 20 nM
IC50 [4]: 100 to 300 nM
Kd (FGFR1): 20 to 100 nM
Kd (FGFR2): 1 to 20 nM
Kd (FGFR3): 1 to 20 nM
Kd (FGFR3 (V555M)): 1 to 20 nM
Kd (FGFR4): 1 to 20 nM

C[C@@H](Oc1ccc2[nH]nc(-c3ccc(N4CC5(CCCS(=O)(=O)C5)C4)nc3)c2c1)c1c(Cl)cncc1Cl [Example 159, 2-[5-[5-[(1R)-1-(3,5-dichloro-4-pyridyl)ethoxy]-1H-indazol-3-yl]-2-pyridyl]-6λ^6-thia-2-azaspiro[3.5]nonane 6,6-dioxide]
Ba/F3 FGFR1/FGFR3 Selectivity [1]: 16
IC50 [1]: 1 to 20 nM
IC50 (FGFR1-BCR Ba/F3 cells): 20 to 100 nM
IC50 [2]: 1 to 20 nM
IC50 [3]: 20 to 100 nM
IC50 [4]: 1 to 20 nM
Kd (FGFR1): 1 to 20 nM
Kd (FGFR2): 1 to 20 nM
Kd (FGFR3): 1 to 20 nM
Kd (FGFR3 (V555M)): 1 to 20 nM
Kd (FGFR4): 1 to 20 nM
